Measured values: patent US11457628B2, “Substituted pyrimidine compound and preparation method and use thereof” (SHENYANG SINOCHEM AGROCHEMICALS R&D CO., LTD., priority 2017, dated 2022)

Columns and labels:
cucumber downy mildew = assay: in vivo protective activity, pot determination, cucumber downy mildew
rice blast = assay: microbe, parasite or virus in culture; type: cell-based; conditions: Pyricularia oryzae, 24 h, read-out: inhibition activity for rice blast
green peach aphid = assay: activity against the green peach aphid, airbrush spray method; type: in vivo; conditions: 100 mg/L, after 48 hours
wheat powdery mildew = assay: in vivo protective activity, pot determination, wheat powdery mildew
cucumber anthrax = type: in vivo; conditions: dose 400 ppm
Tetranychus cinnabarinus = assay: activity against Tetranychus cinnabarinus, airbrush spray method; conditions: 600 mg/L, after 72 hours
corn rust = assay: in vivo protective activity, pot determination, corn rust

Question: With `CCc1ncnc(NCc2cnn(-c3ccccc3)c2C)c1Cl` [CK1] as the compound, how does the “Protective Activity (%), cucumber downy mildew” value (cucumber downy mildew; 25 mg/L) read?
Answer: 0%

Question: And the “Protective Activity (%), cucumber downy mildew” value (cucumber downy mildew; 50 mg/L)?
Answer: 20%

Question: What about the “Protective Activity (%), cucumber downy mildew” value (cucumber downy mildew; 100 mg/L) of the same compound?
Answer: 95%

Question: What about the “Protective Activity (%), cucumber downy mildew” value (cucumber downy mildew; 400 mg/L) of the same compound?
Answer: 100%

Question: What about the inhibition at 2.8 ppm (rice blast) of the same compound?
Answer: 0%

Question: And the inhibition at 8.3 ppm (rice blast)?
Answer: 0%

Question: And the inhibition at 25 ppm (rice blast)?
Answer: 0%

Question: And the “Lethality to Green Peach Aphid (%)” value (green peach aphid)?
Answer: 0%

Question: Which “Protective Activity (%), wheat powdery mildew” value (wheat powdery mildew; 6.25 mg/L) does the source give for `CCc1ncnc(NCc2cnn(-c3ccccc3)c2C(F)(F)F)c1Cl` [CK2] here?
Answer: 0%

Question: And the “Protective Activity (%), wheat powdery mildew” value (wheat powdery mildew; 25 mg/L)?
Answer: 20%

Question: And the “Protective Activity (%), wheat powdery mildew” value (wheat powdery mildew; 100 mg/L)?
Answer: 50%

Question: And the “Protective Activity (%), wheat powdery mildew” value (wheat powdery mildew; 400 mg/L)?
Answer: 100%

Question: And the “Protective Activity (%), cucumber downy mildew” value (cucumber downy mildew; 25 mg/L)?
Answer: 0%

Question: And the “Protective Activity (%), cucumber downy mildew” value (cucumber downy mildew; 50 mg/L)?
Answer: 20%

Question: And the “Protective Activity (%), cucumber downy mildew” value (cucumber downy mildew; 100 mg/L)?
Answer: 75%

Question: And the “Protective Activity (%), cucumber downy mildew” value (cucumber downy mildew; 400 mg/L)?
Answer: 100%

Question: And the inhibition at 2.8 ppm (rice blast)?
Answer: 0%

Question: And the inhibition at 8.3 ppm (rice blast)?
Answer: 0%

Question: What about the inhibition at 25 ppm (rice blast) of the same compound?
Answer: 0%

Question: Which results are given for `Cc1nc(C)c(C)c(N(C)Cc2cnn(-c3ccccc3)c2)n1` [CK3]?
Answer: protective effect for the melon anthrax / cucumber anthrax (cucumber anthrax): 0%; Protective Activity (%), wheat powdery mildew (wheat powdery mildew; 400 mg/L): 0%; Protective Activity (%), cucumber downy mildew (cucumber downy mildew; 50 mg/L): 0%; Protective Activity (%), cucumber downy mildew (cucumber downy mildew; 100 mg/L): 30%; Protective Activity (%), cucumber downy mildew (cucumber downy mildew; 400 mg/L): 100%; inhibition at 2.8 ppm (rice blast): 0%; inhibition at 8.3 ppm (rice blast): 0%; inhibition at 25 ppm (rice blast): 0%; Lethality to Tetranychus Cinnabarinus (%) (Tetranychus cinnabarinus): 56%; Protective Activity (%), corn rust (corn rust; 6.25 mg/L): 0%; Protective Activity (%), corn rust (corn rust; 25 mg/L): 0%; Protective Activity (%), corn rust (corn rust; 100 mg/L): 20%; Protective Activity (%), corn rust (corn rust; 400 mg/L): 60%; Lethality to Green Peach Aphid (%) (green peach aphid): 30%

Question: Which results are given for `Cc1cc(N(C)Cc2cnn(-c3ccccc3)c2)nc(C(C)C)n1` [CK4]?
Answer: protective effect for the melon anthrax / cucumber anthrax (cucumber anthrax): 0%; Protective Activity (%), wheat powdery mildew (wheat powdery mildew; 400 mg/L): 0%; Protective Activity (%), cucumber downy mildew (cucumber downy mildew; 50 mg/L): 0%; Protective Activity (%), cucumber downy mildew (cucumber downy mildew; 100 mg/L): 40%; Protective Activity (%), cucumber downy mildew (cucumber downy mildew; 400 mg/L): 100%; inhibition at 2.8 ppm (rice blast): 0%; inhibition at 8.3 ppm (rice blast): 0%; inhibition at 25 ppm (rice blast): 0%; Lethality to Tetranychus Cinnabarinus (%) (Tetranychus cinnabarinus): 59%; Protective Activity (%), corn rust (corn rust; 6.25 mg/L): 0%; Protective Activity (%), corn rust (corn rust; 25 mg/L): 0%; Protective Activity (%), corn rust (corn rust; 100 mg/L): 0%; Protective Activity (%), corn rust (corn rust; 400 mg/L): 40%; Lethality to Green Peach Aphid (%) (green peach aphid): 0%

Question: How did the “protective effect for the melon anthrax / cucumber anthrax” value (cucumber anthrax) turn out when `Cc1nc(Cl)cc(N(C)Cc2c(C)nn(-c3ccccc3)c2C)n1` [CK5] was run?
Answer: 0%

Question: And the “Protective Activity (%), wheat powdery mildew” value (wheat powdery mildew; 400 mg/L)?
Answer: 0%

Question: What about the “Protective Activity (%), cucumber downy mildew” value (cucumber downy mildew; 400 mg/L) of the same compound?
Answer: 85%

Question: What about the inhibition at 2.8 ppm (rice blast) of the same compound?
Answer: 0%

Question: And the inhibition at 8.3 ppm (rice blast)?
Answer: 0%

Question: What about the inhibition at 25 ppm (rice blast) of the same compound?
Answer: 0%

Question: What about the “Lethality to Tetranychus Cinnabarinus (%)” value (Tetranychus cinnabarinus) of the same compound?
Answer: 58%

Question: And the “Protective Activity (%), corn rust” value (corn rust; 6.25 mg/L)?
Answer: 20%

Question: What about the “Protective Activity (%), corn rust” value (corn rust; 25 mg/L) of the same compound?
Answer: 60%

Question: What about the “Protective Activity (%), corn rust” value (corn rust; 100 mg/L) of the same compound?
Answer: 70%

Question: What about the “Protective Activity (%), corn rust” value (corn rust; 400 mg/L) of the same compound?
Answer: 98%

Question: And the “Lethality to Green Peach Aphid (%)” value (green peach aphid)?
Answer: 22%

Question: How did the “protective effect for the melon anthrax / cucumber anthrax” value (cucumber anthrax) turn out when `Cc1ncnc(NCCOc2cc(-c3ccc(Cl)cc3Cl)n(C)n2)c1Cl` [Compound 10-21] was run?
Answer: 100%

Question: For `CCc1ncnc(NCCOc2nn(C)c(-c3ccc(Cl)cc3)c2C)c1Cl` [Compound 11-1-19], which “protective effect for the melon anthrax / cucumber anthrax” value (cucumber anthrax) is on record?
Answer: 100%

Question: `Cc1c(OCCNc2ncnc(C(F)F)c2Cl)nn(C)c1-c1ccccc1` [Compound 12-1-1] was tested. Which “protective effect for the melon anthrax / cucumber anthrax” value (cucumber anthrax) did it give?
Answer: 100%

Question: Which results are given for `Cc1c(OCCNc2ncnc(C(F)F)c2Cl)nn(C)c1-c1ccc(Cl)cc1` [Compound 12-1-19]?
Answer: protective effect for the melon anthrax / cucumber anthrax (cucumber anthrax): 100%; protective effect for control of wheat powdery mildew (wheat powdery mildew; dose 6.25 ppm): more than 80%

Question: Which inhibition at 2.8 ppm (rice blast) does the source give for `Cc1c(OCCCNc2ncnc(C(F)F)c2Cl)nn(C)c1-c1ccccc1` [Compound 12-3-1] here?
Answer: > 80%

Question: And the inhibition at 8.3 ppm (rice blast)?
Answer: > 80%

Question: What about the inhibition at 25 ppm (rice blast) of the same compound?
Answer: > 80%

Question: How did the “protective effect for the melon anthrax / cucumber anthrax” value (cucumber anthrax) turn out when `Cc1c(OCCNc2ncnc3ccccc23)nn(C)c1-c1ccc(F)cc1` [Compound 19-1-4] was run?
Answer: 100%

Question: How did the “protective effect for the melon anthrax / cucumber anthrax” value (cucumber anthrax) turn out when `Cc1c(OCC(C)Nc2ncnc3ccccc23)nn(C)c1-c1ccccc1` (centres unmarked) [Compound 19-4-1] was run?
Answer: 100%

Question: Which inhibition at 25 ppm (rice blast) does the source give for `Cn1nc(OCCNc2ncnc3ccccc23)cc1-c1ccc(Br)cc1` [Compound 19-34] here?
Answer: > 80%

Question: `Cc1c(OCCNc2ncnc3scc(Cl)c23)nn(C)c1-c1ccc(F)cc1` [Compound 21-1-4] was tested. Which “protective effect for the melon anthrax / cucumber anthrax” value (cucumber anthrax) did it give?
Answer: 100%

Question: Which “protective effect for the melon anthrax / cucumber anthrax” value (cucumber anthrax) does the source give for `Cc1c(OCC(C)Nc2ncnc3scc(Cl)c23)nn(C)c1-c1ccccc1` (centres unmarked) [Compound 21-4-1] here?
Answer: 100%

Question: For `Cn1nc(OCCNc2ncnc3scc(Cl)c23)cc1-c1ccc(Cl)cc1Cl` [Compound 21-21], which “protective effect for the melon anthrax / cucumber anthrax” value (cucumber anthrax) is on record?
Answer: 100%

Question: Which “protective effect for the melon anthrax / cucumber anthrax” value (cucumber anthrax) does the source give for `CCc1ncnc(OCCOc2nn(C)c(-c3ccccc3)c2C)c1Cl` [Compound 26-1-1] here?
Answer: 100%
